{"source": "patent US6630583B1", "about": "“Antibiotics and methods of using the same” (priority 1998, dated 2003)", "key": {"[1]": {"system": "loss of function mutants of the ABC transporter and RR/HK", "experiment": "Tolerance of loss of function mutants", "type": "cell-based, S. pneumoniae", "conditions": "growth inhibitory concentrations", "text": "As described in Example 6, using insertion duplication mutagenesis, loss of function mutations were obtained in each of the 3 open reading frames of the ABC transporter and each of the two parts of the RR/HK. […] These parallel phenotypes further implicate these topographically close genes in a common pathway.\nVancomycin is the only antibiotic that maintains efficacy against many strains of highly antibiotic resistant bacteria, such as staphylococci, enterococci and pneumococci. Escape from antibiotic activity of vancomycin has been detected in rare staphylococci and enterococci but not in pneumococci as yet. […] Infect. Dis. J., 12:196-200 (1993); Marton et al., J. Infect. Dis., 163:542-8 (1991); and Bradley et al., Pediatr. Infect. Dis., 14:1037-1041 (1995)]. […] If they created a phenotype which was corrected by exogenous peptide, they may participate in the biological activity of the peptide. For instance, the ABC transporter may transport the peptide and the HK may serve as an extracellular receptor for the peptide which then changes the behavior of the bacteria (i.e., killing) via a RR signal."}, "Orf W1 mutant": {"system": "Orf W1 mutant", "experiment": "Phenotypes of the mutants: lysis by penicillin, vancomycin, DOC", "type": "cell-based, S. pneumoniae", "experimental": "(§1) Construction of mutations: Insertion duplication mutagenesis was carried out using PCR to generate gene fragments for homologous recombination proximal to the amino terminus of OrfW1, HK or RR as follows:\n(§2) Phenotypes of the mutants: The mutants were assessed for various physiological functions characteristic of pneumococci. This included lysis by penicillin, vancomycin, and the detergent deoxycholate (DOC). Other capabilities tested included ability to undergo natural DNA transformation (Transform) and expression of the LytA protein as assessed by Western blot."}, "HK mutant": {"system": "HK mutant", "experiment": "Phenotypes of the mutants: lysis by penicillin, vancomycin, DOC", "type": "cell-based, S. pneumoniae", "experimental": "as §1, §2"}, "RR mutant": {"system": "RR mutant", "experiment": "Phenotypes of the mutants: lysis by penicillin, vancomycin, DOC", "type": "cell-based, S. pneumoniae", "experimental": "as §1, §2"}, "vexp3 mutant": {"system": "vexp3 mutant", "experiment": "Effect of antibiotic treatment on viability", "type": "cell-based, S. pneumoniae", "conditions": "10×MIC of vancomycin, in 4 hours", "procedure": "Bacterial viability was followed for six hours. (Parent strain, R6 (□), vex3 mutant (◯), and vncS mutant (⋄)).\n(§3) The effect of penicillin and vancomycin treatment on the viability was determined by exposing 10 ml cultures in the early exponential phase of growth (OD620nm=0.3, corresponding 5×10^7 cfu/ml) to ten times the MIC of benzylpenicillin or vancomycin, respectively. After various times of exposure, 100 μl portions were removed, serially diluted in C+Y and in the case of penicillin supplemented with 100 units of penicillinase (Sigma), and plated on tryptic-soy agar supplemented with 3% sheep blood (v/v)."}, "[2]": {"system": "leucine deprived R6 cells", "experiment": "Stringent response: lysis after leucine deprivation", "type": "cell-based, S. pneumoniae", "conditions": "10×MIC of penicillin or vancomycin, 0.2 mM P27, or combination", "experimental": "P27 and the stringent response mechanism: The stringent response is believed to prevent the death pathway. To clarify the relationship of the stringent response to P27 activity, protein synthesis of R6 was inhibited by leucine deprivation and the effect of P27 was monitored (FIG. 19). […] The minimum concentration of penicillin required to cause penicillin dependent autolysis was equal to its MIC ([…])."}, "mutant SPSJ01": {"system": "mutant SPSJ01", "experiment": "Screen of library of loss of function mutants for antibiotic tolerance", "type": "cell-based, pneumococcus", "text": "To detect genes that are part of the trigger pathway of the pneumococcal autolysin a library of loss of function mutants has been created, which was screened for antibiotic tolerance [Pearce et al., Mol. Microbiol., 9:1037-1050 (1993)]. […] It is reasonable to assume that this two component system represents the start of the pneumococcal autolytic trigger pathway, functioning as a relay station reacting to cell density signals or the binding of antibiotics to penicillin binding proteins. Similar to the enterococcal histidine kinase VanSB, the pneumococcal VncS works most likely as a kinase/phosphatase (see Example 1, above)."}, "clinical isolate A144": {"system": "clinical isolate A144", "experiment": "Cell viability (CFU/ml) one hour after addition", "type": "cell-based, pneumococcus", "conditions": "10×MIC of penicillin, 1×MIC of vancomycin or 0.4 mM peptide", "text": "Tolerance to penicillin occurs in bacteria that fail to trigger autolysins in response to the drug. […] This is a mechanism of resistance to these drugs and is a serious emerging medical problem. […] However, one pneumococcal strain that fails to lyse and dies slowly in response to both penicillin and vancomycin is the clinical isolate A144. This combination of traits makes A144 recalcitrant to therapy. FIG. 8 compares the activity of penicillin, vancomycin, and the peptide having the amino acid sequence of SEQ ID NO:2 against a classical sensitive strain, R6, and the tolerant strain A144. […] In contrast, strain A144 loses only 0.5 logs of viability in the same time period for all three therapies. […] Thereafter the bacteria grew more slowly than untreated controls."}, "parent strain R6": {"system": "parent strain R6", "experiment": "Effect of vancomycin treatment on viability", "type": "cell-based, S. pneumoniae", "conditions": "R6, vancomycin 10×MIC (5 μg/ml), over 4 hours", "procedure": "Bacterial viability was followed for six hours.\nas §3"}, "clinical isolate F79": {"system": "clinical isolate F79", "experiment": "Lysis of tolerant clinical isolate", "type": "cell-based, pneumococcus", "conditions": "10×MIC of penicillin and/or 0.5 mM peptide", "experimental": "FIGS. 11A-11B show the effects of 10×MIC of penicillin and/or 0.5 mM of the peptide having the amino acid sequence of SEQ ID NO:2 on the lysis of clinical isolate F79 cells (FIG. 11A) and HK mutant VanS cells (FIG. 11B).\nF79 is a natural isolate of pneumococcus with mutations in the HK and the ABC transporter genes as determined by SSCP (see Example 11)."}, "[3]": {"system": "strain RNET01 (vncS over-expressed)", "experiment": "Effect of vancomycin treatment on viability", "type": "cell-based, S. pneumoniae", "conditions": "RNET01, vancomycin 10×MIC (5 μg/ml), over 4 hours", "procedure": "as §3\nTo address the question if the kinase/phosphatase VncS was indeed directly linked to the major pneumococcal autolytic pathway, VncS was overexpressed from a plasmid in a vncS deficient knockout mutant. […] To establish a possible correlation between over-expression of the vncS gene and cell death RNET01 and R6 were exposed to vancomycin."}}, "data": [{"smiles": "CN[C@H](CC(C)C)C(=O)N[C@H]1C(=O)N[C@@H](CC(N)=O)C(=O)N[C@H]2C(=O)N[C@H]3C(=O)N[C@H](C(=O)N[C@H](C(=O)O)c4cc(O)cc(O)c4-c4cc3ccc4O)[C@H](O)c3ccc(c(Cl)c3)Oc3cc2cc(c3O[C@@H]2O[C@H](CO)[C@@H](O)[C@H](O)[C@H]2O[C@H]2C[C@](C)(N)[C@H](O)[C@H](C)O2)Oc2ccc(cc2Cl)[C@H]1O", "note": "[vancomycin]", "values": [{"measurement": "tolerance (lysis and death)", "setting": "[1]", "value": "exhibited tolerance"}, {"measurement": "Lysis by", "setting": "Orf W1 mutant", "value": "tolerant"}, {"measurement": "Lysis by", "setting": "HK mutant", "value": "tolerant"}, {"measurement": "Lysis by", "setting": "RR mutant", "value": "sensitive"}, {"measurement": "kill", "setting": "vexp3 mutant", "value": "less than 2 log"}, {"measurement": "lysis of R6 under leucine deprivation", "setting": "[2]", "value": "neither the addition of 10×the MIC of penicillin or vancomycin nor the addition of 0.2 mM P27 resulted in lysis"}, {"measurement": "death in the presence of antibiotic", "setting": "mutant SPSJ01", "value": "failed to die"}, {"measurement": "loss of viability", "setting": "clinical isolate A144", "value": 0.5, "unit": "logs"}, {"measurement": "loss in viability (kill)", "setting": "parent strain R6", "value": 4, "unit": "log"}, {"measurement": "lysis of F79", "setting": "clinical isolate F79", "value": "tolerant"}, {"measurement": "loss in viability", "setting": "[3]", "value": 1, "unit": "log"}]}]}
